According to patent USRE38257E1, “Piperdine derivatives and hypotensives containing the same” (Ajinomoto Co., Inc., priority 1988, dated 2003):

Tested on: male spontaneously hypertensive rats
Assay: Decrease in systolic blood pressure in spontaneously hypertensive rats after intravenous bolus injection, indirect (tail-cuff) method
Format: in vivo, rat
Details: for Decrease in systolic blood pressure (mmHg) time after administration (hour) 0.5: 0.5 hour after administration; for Decrease in systolic blood pressure (mmHg) time after administration (hour) 4: 4 hours after administration
Method: As test animals, four male spontaneously hypertensive rats (weight 400 to 440 g) that were sufficiently adapted for feeding and in which hypertension was confirmed were used.
Physiological saline aqueous solution containing 2.5% Nicolle and 2.5% ethanol of sample was intravenously administered by bolus injection at a dose of 1 ml per 1 kg of body weight. Systolic blood pressure after administration was measured by the indirect (tail-cuff) method.

SMILES	Decrease in systolic blood pressure (mmHg) time after administration (hour) 0.5 (dose 10 mg/kg i.v. bolus)	Decrease in systolic blood pressure (mmHg) time after administration (hour) 4 (dose 10 mg/kg i.v. bolus)	further results
Cl.O=C(CCN1CCC(=C2c3ccccc3C=Cc3ccccc32)CC1)NC1CCCCC1 [Example 226, N-(3,(4-(5H-Dibenzo[a,d]cyclohepten-5-ylidene)-1-piperidinyl)propanoyl)cyclohexylamine hydrochloride]	−131 mmHg	−16 mmHg	
C1=Cc2ccccc2C(=C2CCN(CCCCC3CCCCC3)CC2)c2ccccc21.Cl [Example 228]			Decrease in systolic blood pressure (mmHg) time after administration (hour) 0.5 (dose 3 mg/kg i.v. bolus): −112 mmHg; Decrease in systolic blood pressure (mmHg) time after administration (hour) 4 (dose 3 mg/kg i.v. bolus): −14 mmHg
COc1ccc(C(=O)CCCN2CCC(=C3c4ccccc4CSc4ccccc43)CC2)cc1OC.Cl [Example 229, 4-(4-(5H-Dibenzo[a,d]thiepin-5-ylidene)-1-piperidinyl)-3+,4+-dimethoxybutyrophenone hydrochloride]			Decrease in systolic blood pressure (mmHg) time after administration (hour) 0.5 (dose 3 mg/kg i.v. bolus): −77 mmHg; Decrease in systolic blood pressure (mmHg) time after administration (hour) 4 (dose 3 mg/kg i.v. bolus): −14 mmHg
Cl.O=[N+]([O-])c1ccccc1C=CCN1CCC(=C2c3ccccc3C=Cc3ccccc32)CC1 [Example 230, 4-(5H-Dibenzo[a,d]cyclohepten-5-ylidene)-1-(2-nitrocinnamyl)piperidine hydrochloride]			Decrease in systolic blood pressure (mmHg) time after administration (hour) 0.5 (dose 3 mg/kg i.v. bolus): −131 mmHg; Decrease in systolic blood pressure (mmHg) time after administration (hour) 4 (dose 3 mg/kg i.v. bolus): −91 mmHg
Cl.Nc1ccc(C=CCN2CCC(=C3c4ccccc4C=Cc4ccccc43)CC2)cc1 [Example 231, 1-(4-Aminocinnamyl)-4-(5H-dibenzo[a,d]cyclohepten-5-ylidene)piperidine hydrochloride]			Decrease in systolic blood pressure (mmHg) time after administration (hour) 0.5 (dose 3 mg/kg i.v. bolus): −132 mmHg; Decrease in systolic blood pressure (mmHg) time after administration (hour) 4 (dose 3 mg/kg i.v. bolus): −115 mmHg
CC(=O)Nc1ccc(C=CCN2CCC(=C3c4ccccc4C=Cc4ccccc43)CC2)cc1.Cl.Cl [Example 232, 1-(4-Acetylaminocinnamyl)-4-(5H-dibenzo[a,d]cyclohepten-5-ylidene)piperidine dihydrochloride]			Decrease in systolic blood pressure (mmHg) time after administration (hour) 0.5 (dose 1 mg/kg i.v. bolus): −92 mmHg; Decrease in systolic blood pressure (mmHg) time after administration (hour) 4 (dose 1 mg/kg i.v. bolus): −85 mmHg
Cl.O=C(CCCN1CCC(=C2c3ccccc3C=Cc3ccccc32)CC1)c1ccco1 [Example 233, 4-(4-(5H-Dibenzo[a,d]cyclohepten-5-ylidene)-1-piperidinyl)-1-(2-furyl)-1-butanone hydrochloride]	−35 mmHg	−1 mmHg	
Cl.O=C(CCCN1CCC(=C2c3ccccc3C=Cc3ccccc32)CC1)c1cccs1 [Example 234, 4-(4-(5H-Dibenzo[a,d]cyclohepten-5-ylidene)-1-piperidinyl)-1-(2-thienyl)-1-butanone hydrochloride]	−96 mmHg	−2 mmHg	
C1=Cc2ccccc2C(=C2CCN(CCCOC3CCCCO3)CC2)c2ccccc21.Cl (stereo not drawn) [Example 235, 3-(4-(5H-Dibenzo[a,d]cyclohepten-5-ylidene)-1-piperidinyl)-1-propyl(2-tetrahydropyranyl)ether hydrochloride]	−99 mmHg	−5 mmHg	
Cl.O=C(CCN1CCC(=C2c3ccccc3C=Cc3ccccc32)CC1)OC1CCCCC1 [Example 236, Cyclohexyl 3-(4-(5H-Dibenzo[a,d]cyclohepten-5-ylidene)-1-piperidinyl)propionate hydrochloride]	−10 mmHg	−15 mmHg	
Cl.O=C(NCCN1CCCCC1=C1c2ccccc2C=Cc2ccccc21)c1ccc([N+](=O)[O-])cc1 [Example 237, N-(2-(5H-Dibenzo[a,d]cyclohepten-5-ylidene)-1-piperidinyl)ethyl-4-nitrobenzamide hydrochloride]	−65 mmHg	−14 mmHg	
O=C(O)C(CCN1CCC(=C2c3ccccc3C=Cc3ccccc32)CC1)C1CCCCC1 (stereo not drawn) [Example 238, 2-Cyclohexyl-4-(4-(5H-dibenzo[a,d]cyclohepten-5-ylidene)-1-piperidinyl)butyric acid]	−14 mmHg	−5 mmHg	
Cl.[O-][S+](CCCN1CCC(=C2c3ccccc3C=Cc3ccccc32)CC1)c1ccccc1 (stereo not drawn) [Example 239, 3-(4-(5H-Dibenzo[a,d]cyclohepten-5-ylidene)-1-piperidinyl)-1-propyl phenylsulphoxide hydrochloride]	−68 mmHg	−15 mmHg	
COc1cc2c(cc1OC)CC(CCN1CCC(=C3c4ccccc4C=Cc4ccccc43)CC1)C2.Cl [Example 240]			Decrease in systolic blood pressure (mmHg) time after administration (hour) 0.5 (dose 3 mg/kg i.v. bolus): −118 mmHg; Decrease in systolic blood pressure (mmHg) time after administration (hour) 4 (dose 3 mg/kg i.v. bolus): −5 mmHg
Cl.O=S(=O)(CCCN1CCC(=C2c3ccccc3C=Cc3ccccc32)CC1)c1ccccc1 [Example 241, 3-(4-(5H-Dibenzo[a,d]cyclohepten-5-ylidene)-1-piperidinyl)-1-propyl phenylsulphone hydrochloride]	−73 mmHg	−4 mmHg	
COc1ccc(C(=O)NCCN2CCC(=C3c4ccccc4C=Cc4ccccc43)CC2)cc1OC.Cl [Example 242, N-(2-(5H-Dibenzo[a,d]cyclohepten-5-ylidene)-1-piperidinyl)ethyl-3′,4′-dimethoxybenzamide hydrochloride]	−28 mmHg	7 mmHg	
Cl.O=C(NCCN1CCCCC1=C1c2ccccc2C=Cc2ccccc21)C1CCCCC1 [Example 243, N-(2-(5H-Dibenzo[a,d]cyclohepten-5-ylidene)-1-piperidinyl)ethyl cyclohexanecarboxamide hydrochloride]	−111 mmHg	−31 mmHg	
Cl.O=C(CCCN1CCC(=C2c3ccccc3C=Cc3ccccc32)CC1)N1CCOCC1 [Example 245, 1-(4-(4-(5H-Dibenzo[a,d]cyclohepten-5-ylidene)-1-piperidinyl)butanoyl)morpholine hydrochloride]	−34 mmHg	−10 mmHg	
CC(CC(=O)N1CCSCC1)N1CCC(=C2c3ccccc3C=Cc3ccccc32)CC1.Cl (stereo not drawn) [Example 246]	−34 mmHg	−4 mmHg	
Cl.O=[N+]([O-])c1ccc(CCCN2CCC(=C3c4ccccc4C=Cc4ccccc43)CC2)cc1 [Example 247, 3-(4-(5H-Dibenzo[a,d]cyclohepten-5-ylidene)-1-piperidinyl)-1-(4-notrophenyl)propane hydrochloride]	−119 mmHg	−40 mmHg	
Cl.Cl.Nc1ccc(CCCN2CCC(=C3c4ccccc4C=Cc4ccccc43)CC2)cc1 [Example 248, 1-(4-Aminophenyl)-3-(4-(5H-Dibenzo[a,d]cyclohepten-5-ylidene)-1-piperidinyl)propane dihydrochloride]	−101 mmHg	−92 mmHg	
